Results taken from patent US5278174A, “Sigma binding site agents” (priority 1991, dated 1994).
Entries after “also recorded” stand apart in the source; their conditions may differ. Structures can show the parent of a compound that is named as a salt. Where two headings read alike, the source gives them in different places.

How the values were obtained:
sigma sites [1] = test: Sigma receptor binding assay, [3H]DTG; conditions: 5 nM [3H]DTG; guinea pig whole brain; room temperature, 45 minutes; read-out: Receptor Potency Sigma DTG (IC50, nMol)
Experimental: (§1) Two selective sigma receptor ligands, [^3 H](+)-3-[3-hydroxyphenyl]-N-(1 propyl)piperidine [(+)-3-PPP] and [^3 H] Ditolylguanidine (DTG), were used to label sigma sites in brain tissue.
(§2) The tissue preparation and assay conditions employed when using either of these ligands were essentially the same. Frozen whole guinea pig brains (obtained from Pel-Freez, Rogers, Ariz.) were homogenized in 10 volumes of ice-cold 0.32M sucrose. The resulting pellet was resuspended in 10 volumes of ice-cold 50 mM Tris-HCl (pH 7.4), incubated at 37 ° C. for 30 minutes, and centrifuged at 22,000 × g for 20 minutes. The final tissue suspension was made in 50 mM Tris-HCl (pH 7.4) to a concentration of 20 mg original wet weight/mL. 800 μL of tissue suspension was added to tubes containing 5 nM [^3 H] DTG or 4 nM [^3 H] […] The final assay volume was 1 mL. The assay tubes were gently vortexed, and the binding reaction was carried out for 45 minutes at room temperature. The reaction was terminated by rapid filtration over Whatman GF/B glass fiber filters, which were then rinsed 3x with 5 mL of 50 mM Tris-HCl. Filter bound radioactivity was quantified using liquid scintillation spectrometry.

D2 [2] = target: T1, D2 (Rattus norvegicus, UniProt P61169); test: Dopamine receptor binding, [3H]sulpiride; conditions: 3 nM [3H]sulpiride; rat striata; 60 minutes; read-out: Receptor Potency D2 (Ki, nMol)
T1 construct: Rat striata were homogenized; from tissue; host or cells: rat striatum membranes
Experimental: Dopamine receptor binding was determined using [^3 H] sulpiride. Rat striata were homogenized in 20 volumes of ice-cold 50 mM Tris-HCl (pH 7.5), and the resulting homogenate was centrifuged at 48,000 × g for 10 minutes. The resulting pellet was resuspended in the original volume of 50 mM Tris HCl and centrifuged as previously described. […] The filters were then washed 3 × with 5 mL of 50 mM Tris-HCl containing 100 mM NaCl, and filter bound radioactivity was quantified using liquid scintillation spectrometry.

[3] = Reversal of Amphetamine-Induced Hyperlocomotion; assay type: in vivo; conditions: Mus musculus, ip, read-out: Induced Locomotion Amphetamine (minimally effective dose, MED)
Excerpt: Opto-varimex locomotor monitors (Columbus Instruments, Columbus, Ohio) were used to assess locomotor activity. The monitors consist of a 37×37 cm square plexiglass open field surrounded by an outer enclosure housing a 15×15 array of infrared photobeams. Placement of the mouse in the open field interrupts one or more beams. Movement is detected by successive interruption of more than one beam (setting: box size - 1). The monitors were placed on separate shelves in a dark test room. An IBM compatible computer (Compaq) monitored beam interruptions and calculated indices of locomotor activity (distance travelled, time ambulating) and stereotype behavior (number of small movements, time in stereotypy or small movements). Because the dose of amphetamine in these studies was too low to produce selective increases in stereotyped behavior, distance travelled was the primary dependent variable.

[4] = Induction of haloperidol-like catalepsy; assay type: in vivo, mouse; conditions: for TD50 at 0.5 h: mouse, in vivo
Excerpt: […]. At the time of the test the front paws of the mouse were placed on a 6 mm diameter rod which was mounted between the side walls of the apparatus, 39 mm above the floor. Gentle pressure was applied from the forefinger to immobilize the animal, with its back in a slightly arched (concave) position. The experimenter then released the mouse and recorded the latency to recover normal posture, as defined by return of at least one forepaw to the floor or placement of one hindlimb on the bar. […] TD50 values for lead compounds and reference compounds were confirmed in side-by-side studies by an experimenter blind to treatment conditions.

[5] = cited from earlier work
sigma sites [6] = target: T2, sigma sites (Cavia porcellus, UniProt Q60492); test: Sigma receptor binding assay, [3H](+)-3-PPP; conditions: 4 nM [3H](+)-3-PPP; guinea pig whole brain; room temperature, 45 minutes; read-out: Receptor Potency Sigma PPP (IC50, nMol)
T2 construct: Frozen whole guinea pig brains; tissue Pel-Freez, Rogers, Ariz; host or cells: whole guinea pig brain membranes
Experimental: as §1, §2

[7] = Reversal of Phencyclidine-Induced Hyperlocomotion; assay type: in vivo, mouse; conditions: for minimal effective dose: Mus musculus, read-out: Induced Locomotion PCP (minimally effective dose, MED)
Excerpt: Opto-varimex locomotor monitors (Columbus Instruments, Columbus, Ohio) were used to assess locomotor activity. The monitors consist of a 37×37 cm square plexiglass open field surrounded by an outer enclosure housing a 15×15 array of infrared photobeams. Placement of the mouse in the open field interrupts one or more beams. Movement is detected by successive interruption of more than one beam (setting: box size - 1). The monitors were placed on separate shelves in a dark test room. An IBM compatible computer (Compaq) monitored beam interruptions and calculated indices of locomotor activity (distance travelled, time ambulating) and stereotype behavior (number of small movements, time in stereotypy or small movements).
Male CFl mice (25°-30 g) were obtained from Harlan Sprague Dawley (Indianapolis, (N) and group-housed with free access to food and water for at least four days prior to testing. All tests took place during the light period of a 12:12 hour light-dark cycle. Each daily test consisted of one group of mice receiving a vehicle injection and an injection of amphetamine as the agonist. One group received two vehicle injections, and one or more groups received test compound plus amphetamine. Test compounds or the appropriate vehicles were administered 20 minutes prior to the locomotor test in studies using an intraperitoneal (i.p.) route of administration with mice, 30 minutes prior to test session for studies using an i.p. route of administration to rats, 45 minutes prior to the test session for studies using an oral (p.o.) route of administration with mice and 55 minutes prior to the locomotor test for studies using a p.o. route of administration to rats.
The procedure and data analysis were identical to that reported above for reversal of amphetamine hyperlocomotion with the exception that 3 mg/kg phencyclidine was injected in place of amphetamine 10 minutes prior to the test session.

sigma binding sites = conditions: background statement; cited from earlier work
[8] = background statement; SK&F 10047, PCP, amphetamine; cited from earlier work
D2 [9] = conditions: background statement; cited from earlier work
[10] = clinical trials; cited from earlier work
[11] = amphetamine 1.5 mg/kg i.p., mice, NE = no effect to dose shown
[12] = mice, 30 minutes after injection, NE = no effect to dose shown
[13] = phencyclidine 3 mg/kg, mice, NE = no effect to dose shown
[14] = mice, 30 minutes after injection, NE = no effect to dose shown, read-out: Catalepsy (TD50)

T2 sequence (Q60492 whole entry): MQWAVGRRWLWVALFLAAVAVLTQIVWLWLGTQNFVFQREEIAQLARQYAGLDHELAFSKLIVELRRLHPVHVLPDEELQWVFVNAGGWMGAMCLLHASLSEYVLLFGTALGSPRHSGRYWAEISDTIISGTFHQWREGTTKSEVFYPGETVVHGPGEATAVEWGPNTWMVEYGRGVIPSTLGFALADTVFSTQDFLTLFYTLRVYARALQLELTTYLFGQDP
T1 sequence (P61169 whole entry): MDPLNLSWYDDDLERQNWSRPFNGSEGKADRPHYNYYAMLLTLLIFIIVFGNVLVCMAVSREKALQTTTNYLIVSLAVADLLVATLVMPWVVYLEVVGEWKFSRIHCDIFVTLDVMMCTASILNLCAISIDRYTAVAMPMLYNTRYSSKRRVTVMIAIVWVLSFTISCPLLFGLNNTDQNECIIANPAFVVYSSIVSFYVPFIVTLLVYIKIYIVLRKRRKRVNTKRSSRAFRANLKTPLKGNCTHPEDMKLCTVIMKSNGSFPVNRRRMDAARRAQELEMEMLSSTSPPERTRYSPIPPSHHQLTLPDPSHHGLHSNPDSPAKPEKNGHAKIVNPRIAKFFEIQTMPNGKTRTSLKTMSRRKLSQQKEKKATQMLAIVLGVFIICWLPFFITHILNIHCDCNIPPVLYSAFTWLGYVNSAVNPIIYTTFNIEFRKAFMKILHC

| SMILES | IC50 (sigma sites [1]) | Ki (D2 [2]) | minimal effective dose [3, 11] | IC50 (sigma sites [6]) | minimal effective dose [3] | further results |
| --- | --- | --- | --- | --- | --- | --- |
| OC(CCCN1CCN(c2ncc(F)cn2)CC1)c1ccc(F)cc1 (stereo not drawn) [BMY14802, reference compound] | 237 nM | 3000 nM | 15 mg/kg |  |  |  |
| CN1CCN(C2=Nc3cc(Cl)ccc3Nc3ccccc32)CC1 [Clozapine, reference compound] |  |  | 1 mg/kg |  |  | Catalepsy (TD50) [4, 12]: NE (4); extrapyramidal side effects ([5]; background statement): relatively free of extrapyramidal side effects; agranulocytosis ([5]; chronic administration): produces agranulocytosis upon chronic administration |
| CN(C)CCCCCCOc1ccc2oc(-c3ccccc3)cc(=O)c2c1 [Example 4, 6-[6-Dimethylamino)hexoxy1-2-phenyl-4H-1-benzopyran-4-one hydrochloride] | 432 nM | 5550 nM |  | 335 nM | 30 mg/kg | Induced Locomotion PCP (minimally effective dose, MED) [7, 13]: NE (30); TD50 at 0.5 h [4, 14]: 38 mg/kg |
| O=c1cc(-c2ccccc2)oc2ccc(OCCCCCCN3CCC(O)CC3)cc12 [Example 6, 6-6(4-hydroxypiperidinyl)hexoxy]-2-phenyl-4H-1-benzopyran-4-one hydrochloride] | 100 nM | 3630 nM | 5 mg/kg | 124 nM |  | minimal effective dose [7, 13]: 15 mg/kg; TD50 at 0.5 h [4]: 61 mg/kg |
| O=c1cc(C2CCCCC2)oc2ccc(OCCCCCCN3CCC(O)CC3)cc12 [Example 26, 2-Cyclohexyl-6-[6-4-hydroxypiperidinyl)hexoxy]-4H-1-benzopyran-4-one hydrochloride] | 88 nM | 25000 nM | 20 mg/kg | 46 nM |  | TD50 at 0.5 h [4]: 50 mg/kg |
| O=c1cc(-c2ccccc2)oc2ccc(OCCCCCCN3CCCCC3)cc12 [Example 28, 2-Phenyl-6-(6-piperidinylhexoxy)-4H-1-benzopyran-4-one hydrochloride] |  | 4440 nM | 20 mg/kg | 54 nM |  | minimal effective dose [7, 13]: 30 mg/kg; TD50 at 0.5 h [4, 14]: < 30 mg/kg |
| O=c1cc(-c2ccccc2)oc2ccc(OCCCCCCN3CCOCC3)cc12 [Example 29, 6-(6-Morpholinylhexoxy)-2-phenyl-4H-1-benzopyran-4-one hydrochloride] |  | 18700 nM |  |  | 10 mg/kg | TD50 at 0.5 h [4, 14]: 38 mg/kg |
| O=c1cc(C2CCCCC2)oc2ccc(OCCCCCCN3CCCCC3)cc12 [Example 34, 2-Cyclohexyl-6-(piperidinylhexoxy)-4H-1-benzopyran-4-one hydrochloride] |  |  | 10 mg/kg | 32 nM |  | TD50 at 0.5 h [4]: 30 mg/kg |
| O=c1cc(-c2ccccc2)oc2cc(OCCCCCCN3CCC(O)CC3)ccc12 [Example 37, 7-[6-(4-Hydroxypiperidinyl)hexoxy]-2-phenyl-4H-1-benzopyran-4-one] |  |  |  | 70 nM | 30 mg/kg |  |
| Cc1c(-c2ccccc2)oc2ccc(OCCCCCCN3CCC(O)CC3)cc2c1=O [Example 39, 6-[6-(4-Hydroxypiperidinyl)hexoxy]-3-methyl-2-phenyl-4H-1-benzopyran-4-one hydrochloride] |  |  | 25 mg/kg |  |  | Catalepsy (TD50) [4, 12]: NE (250) |
| O=c1cc(-c2ccccc2Cl)oc2ccc(OCCCCCCN3CCC(O)CC3)cc12 [Example 49, 2-(2-Chlorophenyl)-6-(6-(4-hydroxypiperidinyl)hexoxy)-4H-1-benzopyran-4-onehydrochloride] | 47 nM | 4050 nM |  | 29 nM | 30 mg/kg |  |
| O=C(CCCN1CCC(O)(c2ccc(Cl)cc2)CC1)c1ccc(F)cc1 [Haloperidol, reference compound] |  |  |  |  | 0.075 mg/kg | minimal effective dose [7]: 0.15 mg/kg; TD50 at 0.5 h [4, 14]: 0.14 mg/kg; displacement of [3H]DTG and [3H](+)-3-PPP from sigma sites (sigma binding sites): displace [^3 H]DTG and [^3 H](+)-3-PPP from sigma sites; reversal of stimulant and psychotomimetic effects [8]: antagonize the stimulant/psychotomimetic effects of the dopamine agonist, amphetamine, and presumed sigma agonists such as PCP; also recorded: reverses the stimulant and psychotomimetic effects of SK&F 10047 and PCP |
| c1ccc(C2(N3CCCCC3)CCCCC2)cc1 [PCP, phencyclidine] |  |  |  |  |  | displacement of [3H]DTG and [3H](+)-3-PPP from sigma sites (sigma binding sites): displace [^3 H]DTG and [^3 H](+)-3-PPP from sigma sites |
| CCN1CCC[C@H]1CNC(=O)c1c(OC)ccc(Br)c1OC [Remoxipride] |  |  |  |  |  | D2 blocking potency (D2 [9]): significant D2 blocking potency |
| C[C@@H]1CN(CCCn2c3ccccc3c3ccccc32)C[C@H](C)N1 [Rimcazole, reference compound] | 1620 nM | 22500 nM |  |  | 20 mg/kg | minimal effective dose [7]: > 20 mg/kg; potency at sigma sites (sigma binding sites): only moderately potent at sigma sites; effectiveness in treating schizophrenia [10]: some effectiveness in treating schizophrenia; seizures [10]: induce seizures |
